Laboratory results from article PMC10788528 (The Journal of Biological Chemistry, 2023).
“Also recorded” adds a separate entry of the source.

Columns and labels:
Sm.TRPMMCLZ = molecular target: T1, Sm.TRPMMCLZ (Schistosoma mansoni, UniProt A0A5K4FCC0); assay: Ca2+ reporter assay; assay type: cell-based; conditions: for Antagonism of (S)-MCLZ (1 μM) action at Sm.TRPMMCLZ: 100 μM, preincubation 5 min; for Activator screen at Sm.TRPMMCLZ: 10 μM
T1 sequence (A0A5K4FCC0 1-1380): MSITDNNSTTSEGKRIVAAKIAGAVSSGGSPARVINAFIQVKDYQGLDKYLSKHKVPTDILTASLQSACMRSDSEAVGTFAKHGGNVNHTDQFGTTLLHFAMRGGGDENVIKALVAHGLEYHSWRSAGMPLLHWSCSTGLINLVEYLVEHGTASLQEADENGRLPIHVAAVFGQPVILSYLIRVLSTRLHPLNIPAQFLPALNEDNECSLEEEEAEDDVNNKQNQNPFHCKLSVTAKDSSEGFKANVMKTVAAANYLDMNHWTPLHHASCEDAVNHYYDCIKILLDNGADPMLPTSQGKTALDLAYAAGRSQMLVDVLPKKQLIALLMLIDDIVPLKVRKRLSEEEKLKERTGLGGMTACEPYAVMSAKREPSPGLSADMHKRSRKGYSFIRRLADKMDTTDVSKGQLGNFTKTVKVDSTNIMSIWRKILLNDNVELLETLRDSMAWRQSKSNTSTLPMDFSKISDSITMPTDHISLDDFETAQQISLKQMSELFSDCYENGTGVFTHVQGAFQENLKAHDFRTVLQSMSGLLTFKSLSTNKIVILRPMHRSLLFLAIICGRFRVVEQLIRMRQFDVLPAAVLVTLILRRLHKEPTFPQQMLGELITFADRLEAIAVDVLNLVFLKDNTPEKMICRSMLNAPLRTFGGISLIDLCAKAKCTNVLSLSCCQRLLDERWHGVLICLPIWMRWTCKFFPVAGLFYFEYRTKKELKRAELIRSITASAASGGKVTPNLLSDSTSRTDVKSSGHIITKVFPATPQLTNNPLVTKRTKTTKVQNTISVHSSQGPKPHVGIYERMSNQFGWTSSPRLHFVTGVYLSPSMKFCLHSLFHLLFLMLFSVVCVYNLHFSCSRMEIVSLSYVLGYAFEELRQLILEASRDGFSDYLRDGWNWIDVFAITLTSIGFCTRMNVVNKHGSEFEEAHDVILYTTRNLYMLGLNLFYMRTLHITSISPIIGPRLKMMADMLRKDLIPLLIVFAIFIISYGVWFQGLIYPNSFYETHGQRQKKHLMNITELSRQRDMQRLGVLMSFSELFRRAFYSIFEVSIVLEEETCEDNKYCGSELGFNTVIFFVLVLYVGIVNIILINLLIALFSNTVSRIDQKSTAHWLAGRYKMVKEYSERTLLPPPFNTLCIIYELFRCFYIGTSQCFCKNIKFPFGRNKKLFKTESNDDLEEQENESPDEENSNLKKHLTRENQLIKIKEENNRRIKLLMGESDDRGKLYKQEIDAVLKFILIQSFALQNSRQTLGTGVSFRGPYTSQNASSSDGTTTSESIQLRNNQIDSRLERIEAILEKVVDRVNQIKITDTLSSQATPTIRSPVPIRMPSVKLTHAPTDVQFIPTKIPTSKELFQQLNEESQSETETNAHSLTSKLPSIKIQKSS

S. mansoni male worms = assay: Acute contraction of S. mansoni male worms by benzodiazepines; assay type: cell-based, Schistosoma mansoni; conditions: 3 μM, 20 min
juvenile worms = conditions: ref 7 (PZQ); 12 ((S)-MCLZ); cited from earlier work
[1] = tested on: S. mansoni and S. haematobium infections; conditions: at clinical dosing; cited from earlier work

## O=C1CN=C(c2ccccc2Cl)c2cc([N+](=O)[O-])ccc2N1 [Clonazepam]
Sm.TRPMMCLZ; Activation of Sm.TRPMMCLZ, EC50, HEK293 cells, cytoplasmic Ca2+ (Fluo-4)
  EC50: 2100 ± 200 nM
S. mansoni male worms
  Acute contraction / paralysis of S. mansoni male worms: caused acute worm paralysis

## COC(=O)C1=C(C)NC(C)=C(C(=O)OCCN(C)Cc2ccccc2)C1c1cccc([N+](=O)[O-])c1 (stereo not shown) [nicardipine]
Sm.TRPMMCLZ
  Antagonism of (S)-MCLZ (1 μM) action at Sm.TRPMMCLZ: weakly antagonized; also recorded: weakly attenuated

## NCCc1c[nH]c2ccc(O)cc12 [5-hydroxytryptamine]
Sm.TRPMMCLZ
  Activator screen at Sm.TRPMMCLZ: inactive

## CC1CCC(C(C)C)C(O)C1 (stereo not shown) [menthol]
Sm.TRPMMCLZ
  Activator screen at Sm.TRPMMCLZ: inactive

## CN1C(=O)CN=C(c2ccccc2F)c2cc([N+](=O)[O-])ccc21 [flunitrazepam]
S. mansoni male worms
  Acute contraction / paralysis of S. mansoni male worms: did not evoke worm contraction

## COc1cc(CNC(=O)CCCC/C=C/C(C)C)ccc1O [capsaicin]
Sm.TRPMMCLZ
  Activator screen at Sm.TRPMMCLZ: inactive

## COc1ccc(CCN(C)CCCC(C#N)(c2cc(OC)c(OC)c(OC)c2)C(C)C)cc1OC (stereo not shown) [methoxyverapamil]
Sm.TRPMMCLZ
  Antagonism of (S)-MCLZ (1 μM) action at Sm.TRPMMCLZ: weakly antagonized

## O=C1NC(c2cccc([N+](=O)[O-])c2)=CCN1c1ccccc1O [icilin]
Sm.TRPMMCLZ
  Activator screen at Sm.TRPMMCLZ: inactive

## NCCc1ccc(O)c(O)c1 [dopamine]
Sm.TRPMMCLZ
  Activator screen at Sm.TRPMMCLZ: inactive

## O=C(C1CCCCC1)N1CC(=O)N2CCc3ccccc3C2C1 (racemic) [(±)-PZQ, praziquantel]
Juvenile worms
  Efficacy against juvenile / immature worms: poorly effective against immature worms
Sm.TRPMMCLZ; HEK293 cells, cytoplasmic Ca2+
  Agonist activity at Sm.TRPMMCLZ (concentration-response): did not activate
Sm.TRPMMCLZ; competition versus (S)-MCLZ (1 μM)
  Antagonism of (S)-MCLZ activation of Sm.TRPMMCLZ: failed to inhibit
[1]
  Cure rates: 60–90%

## NCCCC(=O)O [GABA]
Sm.TRPMMCLZ
  Activator screen at Sm.TRPMMCLZ: inactive

## COC(=O)C1=C(C)NC(C)=C(C(=O)OC)C1c1ccccc1[N+](=O)[O-] [nifedipine]
Sm.TRPMMCLZ
  Antagonism of (S)-MCLZ (1 μM) action at Sm.TRPMMCLZ: weakly antagonized; also recorded: weakly attenuated
